According to patent publication US20240252651A1, “METHOD OF DELIVERING NUCLEIC ACIDS INTO CELLS” (GUANGZHOU LIDE BIOMEDICINE TECHNOLOGY CO., LTD., priority 2021, published 2024):
“Also recorded” adds a separate entry of the source.

What was measured:
DC 2.4 cells = test: Transfection of eGFP-mRNA in DC 2.4 cells (FCM and LSCM); assay type: cell-based, mouse; conditions: mRNA 0.2 μg/well, material 0.25 to 2 μg/well (dosages per FIG. 7), 24 h
Method: In this experiment, with eGFP-mRNA as model mRNA, an mRNA transfection efficiency of a cationic lipid analog material in DC 2.4 cells was detected. A specific operation method was as follows:
DC 2.4 cells were inoculated in a 48-well plate and cultured in an incubator for 12 h; each of different cationic lipid analog materials (0.25 μg/well to 2 μg/well) was mixed with cGFP-expressing mRNA (0.2 μg/well) in 20 μL of a sodium acetate buffer (25 mM, pH 5.2), and resulting mixtures each were allowed to stand for 10 min and then diluted with 230 μL of a Opti-MEM medium to obtain mRNA-loaded complex particle solutions; a medium for the […] were washed once with PBS, and the complex particle solutions were added; and the cells were cultured for 24 h, an mRNA transfection efficiency in cells was observed by FCM and LSCM. A commercial gene transfection reagent Lipofectamine 2000 was adopted as a positive control.

Hela cells [1] = test: Cytotoxicity by MTT experiment in Hela cells; assay type: cell-based, human; conditions: material 1 μg/ml, 4 h exposure then 20 h culture, FIG. 11
Method: In this experiment, I2R2C16A1, I2R2C17A1, I2R2C18A1, I2R2C19A1, and I2R2C20A1 with high transfection efficiencies were selected as representative cationic lipid analog materials, and the toxicity of cationic lipid analogs for Hela cells was detected by an MTT experiment. A specific experimental method was as follows: HeLa cells were inoculated in a 96-well plate and cultured in an incubator for 12 h, then a medium was removed, and a cationic lipid analog material was added at 1 μg/ml; the cells were cultured for 4 h, then the material was washed away and replaced with DMEM; and the cells were cultured for 20 h, and finally cell viability was detected by MTT.

Hela cells [2] = test: Transfection of GFP-expressing plasmid DNA in Hela cells (flow cytometer); assay type: cell-based, human; conditions: plasmid DNA 0.5 μg/well, material 0.25 to 8 μg/well (dosages per FIG. 4), 24 h
Method: In this experiment, with GFP-expressing plasmid DNA as a reporter gene, a gene transfection efficiency of a cationic lipid analog material in Hela cells was detected. A specific method was as follows:
Hela cells were inoculated in a 24-well plate and cultured in an incubator for 12 h; each of different cationic lipid analog materials (0.25 μg/well to 8 μg/well) was mixed with GFP-expressing plasmid DNA (0.5 μg/well) in 40 μL of a sodium acetate buffer (25 mM, pH 5.2), and resulting mixtures each were allowed to stand for 10 min and then diluted with 460 μL of an Opti-MEM medium to obtain plasmid DNA-loaded cationic lipid analog complex particle solutions; a medium for the Hela cells in the plate was removed, then the HeLa cells were washed once with PBS, and the complex particle solutions were added; and the cells were cultured for 24 h, and then a plasmid DNA transfection efficiency in cells was analyzed by a flow cytometer. A commercial gene transfection reagent Lipofectamine 2000 was adopted as a positive control.

Hela cells [3] = test: Transfection of luciferase-expressing plasmid DNA in HeLa cells (luciferase expression); assay type: cell-based, human; conditions: plasmid DNA 0.5 μg, 24 h, luciferase expression level, FIG. 5
Method: In this example, with luciferase-expressing plasmid DNA as a reporter gene, a gene transfection efficiency of a cationic lipid analog material in HeLa cells was detected. A specific operation method was as follows: Hela cells were inoculated in a 96-well plate and cultured in an incubator for 12 h; each of different cationic lipid analog materials was mixed with luciferase-expressing plasmid DNA (0.5 μg) in 40 μL of a sodium acetate buffer (25 mM, pH 5.2), and resulting mixtures each were allowed to stand for 10 min and then diluted with 460 μL of an Opti-MEM medium to obtain plasmid DNA-loaded cationic lipid analog complex particle solutions; a medium for the Hela cells in the plate was removed, then the Hela cells were washed once with PBS, and the complex particle solutions were added in a volume of 125 μL; the cells were cultured for 24 h, then a resulting culture supernatant was discarded, and the cells were fully lysed; and a substrate was added at 50 μl/well, and an expression level of luciferase was detected by a multi-mode microplate reader.

A549 cells (A549-Luc) = test: siRNA transfection, luciferase gene silencing in A549-Luc cells; assay type: cell-based, human; conditions: final siRNA 100 nM, material 0.5 to 3 μg/well, 48 h, FIG. 10
Method: In this experiment, with I2R2C18-1A1, I2R3C18-1A1, I2R2C18-2A1, and I2R3C18-2A1 as representative cationic lipid analog materials, siRNA transfection and delivery effects of the cationic lipid analog materials were detected in A549 cells (A549-Luc). A specific operation method was as follows:
Luciferase-expressing A549 cells (A549-Luc) were inoculated in a 96-well plate and cultured in an incubator for 12 h; each of different materials (0.5 μg/well to 3 μg/well) was mixed with siRNA in 40 μL of a sodium acetate buffer (25 mM, pH 5.2), and resulting mixtures each were allowed to stand for 10 min and then diluted with 460 μL of an Opti-MEM medium to obtain siRNA-loaded complex particle solutions (final siRNA concentration was 100 nM); a medium for the A549-Luc cells in the plate was removed, then the A549-Luc cells were washed once with PBS, and the complex particle solutions each were added in a volume of 125 μL; the cells were cultured for 48 h, then a resulting culture supernatant was discarded, and the cells were fully lysed; and a substrate was added at 50 μl/well, and an expression level of luciferase was detected by a multi-mode microplate reader.

| SMILES | mRNA transfection efficiency (eGFP-mRNA), compared with Lipofectamine 2000 (DC 2.4 cells; FIG. 7-9) | cytotoxicity (cell viability by MTT) (Hela cells [1]) | transfection efficiency of GFP-expressing plasmid DNA, compared with commercial transfection reagent Lipofectamine 2000 (Hela cells [2]) | transfection efficiency of luciferase-expressing plasmid DNA, compared with Lipofectamine 2000 (Hela cells [3]) | gene silencing efficiency as a function of material dosage (A549 cells (A549-Luc)) | siRNA transfection, silencing of the luciferase reporter gene (A549 cells (A549-Luc)) | transfection efficiency of GFP-expressing plasmid DNA, compared with commercial transfection reagent Lipofectamine 2000 (Hela cells [2]; listed as 11R11C14A1) | mRNA transfection efficiency (eGFP-mRNA), compared with Lipofectamine 2000 (DC 2.4 cells; FIG. 7-9, listed as 11R2C14A1) | transfection efficiency of GFP-expressing plasmid DNA, compared with commercial transfection reagent Lipofectamine 2000 (Hela cells [2]; listed as 11R2C14A1) |
| --- | --- | --- | --- | --- | --- | --- | --- | --- | --- |
| CCCCCCCCCCCCCCCC(=O)N(CCCN(C)C)C(C(=O)NCCOCCOCCNC(=O)C(C(C)C)N(CCCN(C)C)C(=O)CCCCCCCCCCCCCCC)C(C)C (stereo not shown) [I2R2C16A1] | high transfection efficiency; also recorded: equivalent to or higher than | low cytotoxicity | reaches or is higher than; also recorded: equivalent to or higher than | equivalent to or higher than |  |  |  |  |  |
| CCCCC/C=C\C/C=C\CCCCCCCC(=O)N(CCCN(C)C)C(C(=O)NCCOCCOCCNC(=O)C(C(C)C)N(CCCN(C)C)C(=O)CCCCCCC/C=C\C/C=C\CCCCC)C(C)C (stereo not shown) [I2R2C18-2A1] | high transfection efficiency; also recorded: equivalent to or higher than |  | reaches or is higher than; also recorded: equivalent to or higher than | equivalent to or higher than | increases with the increase of a dosage | efficient gene silencing; also recorded: can transfect siRNA into cells to specifically silence the expression of the luciferase reporter gene |  |  |  |
| CCCCCCCCCCCCCCCCCCCC(=O)N(CCCN(C)C)C(C(=O)NCCOCCOCCNC(=O)C(C(C)C)N(CCCN(C)C)C(=O)CCCCCCCCCCCCCCCCCCC)C(C)C (stereo not shown) [I2R2C20A1] |  | low cytotoxicity |  |  |  |  |  |  |  |
| CCCCC/C=C\C/C=C\CCCCCCCC(=O)N(CCCN(CC)CC)C(C(=O)NCCOCCOCCNC(=O)C(C(C)C)N(CCCN(CC)CC)C(=O)CCCCCCC/C=C\C/C=C\CCCCC)C(C)C (stereo not shown) [I2R3C18-2A1] | high transfection efficiency; also recorded: equivalent to or higher than |  | reaches or is higher than; also recorded: equivalent to or higher than | equivalent to or higher than | increases with the increase of a dosage | efficient gene silencing; also recorded: can transfect siRNA into cells to specifically silence the expression of the luciferase reporter gene |  |  |  |
| CCCCCCCCCCCCCCCCCC(=O)N(CCCN(C)C)C(C(=O)NCCOCCOCCNC(=O)C(C(C)C)N(CCCN(C)C)C(=O)CCCCCCCCCCCCCCCCC)C(C)C (stereo not shown) [I2R2C18A1] | high transfection efficiency; also recorded: equivalent to or higher than | low cytotoxicity |  |  |  |  |  |  |  |
| CCCCC/C=C\C/C=C\CCCCCCCC(=O)N(CCC1CCCN1C)C(C(=O)NCCOCCOCCNC(=O)C(C(C)C)N(CCC1CCCN1C)C(=O)CCCCCCC/C=C\C/C=C\CCCCC)C(C)C (stereo not shown) [I2R11C18-2A1] | high transfection efficiency; also recorded: equivalent to or higher than |  | reaches or is higher than; also recorded: equivalent to or higher than | equivalent to or higher than |  |  |  |  |  |
| CCCCCCCCCCCCCC(=O)N(CCC1CCCN1C)C(C(=O)NCCCCCCNC(=O)C(C(C)C)N(CCC1CCCN1C)C(=O)CCCCCCCCCCCCC)C(C)C (stereo not shown) [I1R11C14A1] | high transfection efficiency; also recorded: equivalent to or higher than |  | reaches or is higher than | equivalent to or higher than |  |  | equivalent to or higher than |  |  |
| CCCCCCCCCCCCCC(=O)N(CCCN(C)C)C(C(=O)NCCCCCCNC(=O)C(C(C)C)N(CCCN(C)C)C(=O)CCCCCCCCCCCCC)C(C)C (stereo not shown) [I1R2C14A1] | high transfection efficiency |  | reaches or is higher than | equivalent to or higher than |  |  |  | equivalent to or higher than | equivalent to or higher than |
| CCCCCCCC/C=C\CCCCCCCC(=O)N(CCCN(C)C)C(C(=O)NCCOCCOCCNC(=O)C(C(C)C)N(CCCN(C)C)C(=O)CCCCCCC/C=C\CCCCCCCC)C(C)C (stereo not shown) [I2R2C18-1A1] | high transfection efficiency; also recorded: equivalent to or higher than |  | reaches or is higher than; also recorded: equivalent to or higher than | equivalent to or higher than | increases with the increase of a dosage | efficient gene silencing; also recorded: can transfect siRNA into cells to specifically silence the expression of the luciferase reporter gene |  |  |  |
